Laboratory results published in US20150133297A1, “NEW ANTIFUNGAL COMPOSITIONS” (DSM IP ASSETS B.V., priority 2012, published 2015).
“And” between values parts separate entries of the source, which are not always exact repeats. Equal entries are not always repeated.

Legend:
Botrytis cinerea = experiment: Treatment of strawberries (Example 5): wounded, inoculated, dipped in antifungal composition; assay type: in vivo; conditions: 500 ppm natamycin, 600 ppm fenpropidin or both
Protocol: Twelve fresh, organic strawberries were used per treatment. Each strawberry was wounded with a 0.5 mm long cut and each wound was inoculated with 10 μl of a Botrytis cinerea suspension containing 1×10^5 of spores/ml. […] A composition without natamycin or fenpropidin was used as control. […] The treated strawberries were incubated in a closed box in the dark at 20° C. for 9 days. During incubation, mould growth on the strawberries was assessed in a twofold manner: […] The expected antifungal activity (E in %) of the combined antifungal composition comprising both active ingredients was calculated according to the Colby equation (Colby, 1967): […] wherein X and Y are the observed antifungal activities (in %) of the individual active ingredients X and Y, respectively.

Penicillium italicum = experiment: Treatment of oranges (Examples 6-9): wounded, inoculated, wound treated with antifungal composition; assay type: in vivo; conditions: for Observed antifungal activity O (%): oranges, 20° C.
Protocol: During incubation, mould growth on the strawberries was assessed in a twofold manner: (i) the number of moulded strawberries per total of 12 strawberries was counted; and (ii) the antifungal activity (in %) of the individual and combined active ingredients was determined by calculating the reduction in mould growth observed on the strawberries treated with the antifungal composition in comparison to the mould growth on the strawberries treated with the control composition. The expected antifungal activity (E in %) of the combined antifungal composition comprising both active ingredients was calculated according to the Colby equation (Colby, 1967): […]
Eight fresh, organic oranges were used per treatment. Each orange was soaked in a 180 ppm hypochlorite solution for 10 minutes, then rinsed thoroughly with fresh tap water and dried. The peel of each disinfected orange was wounded once using a cork borer according to the method described by de Lapeyre de Bellaire and Dubois (1987). Subsequently, each wound was inoculated with 10 μl of a Penicillium italicum suspension containing 5×10^5 of spores/ml. After incubation for 3 hours at 20° C., each wound and the orange peel area of 1 cm around the wound was treated with in total 150 μl of a freshly prepared aqueous antifungal composition comprising either 500 ppm natamycin (DSM Food Specialties, Delft, The Netherlands), 500 ppm fenpropidin or both. Each antifungal composition also comprised 3.2% (w/w) beeswax, 0.8% (w/w) glycerol, 0.7% (w/w) polyoxyethylene sorbitan monostearate (Tween 60), 0.1% (w/w) polyoxyethylene sorbitan monooleate (Tween 80), 0.05% (w/w) methylhydroxyethyl-cellulose (MHEC), 0.03% (w/w) anti-foaming agent, 0.02% (w/w) xanthan gum, 0.02% (w/w) citric acid, 0.01% (w/w) lactic acid and 0.01% potassium sorbate. A composition without natamycin or fenpropidin was used as control. […] The treated oranges were incubated in a closed box in the dark at 20° C. and assessed on mould growth during a 28-day incubation period. The antifungal activity (in %) of the individual and combined active ingredients was determined by calculating the reduction in mould growth observed on the oranges treated with the antifungal composition in comparison to the mould growth on the oranges treated with the control composition according to the Colby method (Colby, 1967) as described in Example 5.
(§1) The experiment was conducted as described in Example 6, except for the fact that each wounded and inoculated orange was treated with 150 μl of a freshly prepared aqueous antifungal composition comprising either 250 ppm natamycin (DSM Food Specialties, Delft, The Netherlands), 250 ppm fenpropidin or both. During the 26-day incubation period, the treated oranges were assessed on mould growth according to the two methods described in Example 5.
as §1, with “either 500” for “either 250”, “Netherlands), 400” for “Netherlands), 250”, “ppm spiroxamine” for “ppm fenpropidin”
as §1, with “Netherlands), 200” for “Netherlands), 250”, “ppm spiroxamine” for “ppm fenpropidin”

[1] = Day 11, 20° C., 250 ppm natamycin, 200 ppm spiroxamine or both
[2] = Day 12, 20° C., 250 ppm natamycin, 200 ppm spiroxamine or both
[3] = Day 13, 20° C., 250 ppm natamycin, 200 ppm spiroxamine or both
[4] = Day 14-15, 20° C., 250 ppm natamycin, 200 ppm spiroxamine or both
[5] = Day 14-16, 20° C., 500 ppm natamycin, 400 ppm spiroxamine or both
[6] = Day 16, 20° C., 250 ppm natamycin, 200 ppm spiroxamine or both
[7] = Day 18, 20° C., 250 ppm natamycin, 200 ppm spiroxamine or both
[8] = Day 18, 20° C., 500 ppm natamycin, 400 ppm spiroxamine or both
[9] = Day 19-21, 20° C., 500 ppm natamycin, 400 ppm spiroxamine or both
[10] = Day 19-25, 20° C., 250 ppm natamycin, 200 ppm spiroxamine or both
[11] = Day 22-23, 20° C., 500 ppm natamycin, 400 ppm spiroxamine or both
[12] = Day 26, 20° C., 250 ppm natamycin, 200 ppm spiroxamine or both
[13] = days 19 through 26, 250 ppm natamycin, 200 ppm spiroxamine or both
[14] = day 11, 250 ppm natamycin, 200 ppm spiroxamine or both
[15] = day 12, 250 ppm natamycin, 200 ppm spiroxamine or both
[16] = day 13, 250 ppm natamycin, 200 ppm spiroxamine or both
[17] = day 14, 250 ppm natamycin, 200 ppm spiroxamine or both
[18] = day 15, 250 ppm natamycin, 200 ppm spiroxamine or both
[19] = day 16, 250 ppm natamycin, 200 ppm spiroxamine or both
[20] = day 18, 250 ppm natamycin, 200 ppm spiroxamine or both
[21] = day 18, 500 ppm natamycin, 400 ppm spiroxamine or both
[22] = day 19, 250 ppm natamycin, 200 ppm spiroxamine or both
[23] = day 19, 500 ppm natamycin, 400 ppm spiroxamine or both
[24] = day 20, 250 ppm natamycin, 200 ppm spiroxamine or both
[25] = day 20, 500 ppm natamycin, 400 ppm spiroxamine or both
[26] = day 21, 250 ppm natamycin, 200 ppm spiroxamine or both
[27] = day 21, 500 ppm natamycin, 400 ppm spiroxamine or both
[28] = day 22, 250 ppm natamycin, 200 ppm spiroxamine or both
[29] = day 22, 500 ppm natamycin, 400 ppm spiroxamine or both
[30] = day 23, 250 ppm natamycin, 200 ppm spiroxamine or both
[31] = day 23, 500 ppm natamycin, 400 ppm spiroxamine or both
[32] = day 25-26, 500 ppm natamycin, 400 ppm spiroxamine or both
[33] = day 25, 250 ppm natamycin, 200 ppm spiroxamine or both
[34] = day 26, 250 ppm natamycin, 200 ppm spiroxamine or both

C[C@@H]1C/C=C/C=C/C=C/C=C/[C@H](O[C@@H]2O[C@H](C)[C@@H](O)[C@H](N)[C@@H]2O)C[C@@H]2O[C@](O)(C[C@@H](O)C[C@H]3O[C@@H]3/C=C/C(=O)O1)C[C@H](O)[C@H]2C(=O)O [Natamycin, natamycin]
Number of moulded strawberries/total number of 12 strawberries (Botrytis cinerea; Day 5, 20° C.): 11
Number of moulded strawberries/total number of 12 strawberries (Botrytis cinerea; Day 6, 20° C.): 12
Number of moulded oranges/total number of 8 oranges (Penicillium italicum; [1]): 5 and 5/8
Number of moulded oranges/total number of 8 oranges (Penicillium italicum; [2]): 5 and 5/8
Number of moulded oranges/total number of 8 oranges (Penicillium italicum; [3]): 5/8
Number of moulded oranges/total number of 8 oranges (Penicillium italicum; [4]): 6/8
Number of moulded oranges/total number of 8 oranges (Penicillium italicum; [5]): 5/8
Number of moulded oranges/total number of 8 oranges (Penicillium italicum; [6]): 6 and 6/8
Number of moulded oranges/total number of 8 oranges (Penicillium italicum; [7]): 6 and 6/8
Number of moulded oranges/total number of 8 oranges (Penicillium italicum; Day 18, 20° C., 250 ppm natamycin, 250 ppm fenpropidin or both): 6/8
Number of moulded oranges/total number of 8 oranges (Penicillium italicum; [8]): 6/8
Number of moulded oranges/total number of 8 oranges (Penicillium italicum; Day 19, 20° C., 250 ppm natamycin, 250 ppm fenpropidin or both): 7/8
Number of moulded oranges/total number of 8 oranges (Penicillium italicum; [9]): 6 and 6/8
Number of moulded oranges/total number of 8 oranges (Penicillium italicum; [10]): 7/8
Number of moulded oranges/total number of 8 oranges (Penicillium italicum; Day 20, 20° C., 250 ppm natamycin, 250 ppm fenpropidin or both): 7/8
Number of moulded oranges/total number of 8 oranges (Penicillium italicum; Day 21-22, 20° C., 250 ppm natamycin, 250 ppm fenpropidin or both): 7 and 7/8
Number of moulded oranges/total number of 8 oranges (Penicillium italicum; [11]): 6 and 6/8
Number of moulded oranges/total number of 8 oranges (Penicillium italicum; Day 23-26, 20° C., 250 ppm natamycin, 250 ppm fenpropidin or both): 7 and 7/8
Number of moulded oranges/total number of 8 oranges (Penicillium italicum; [12]): 7/8
moulded oranges of the 8 oranges (Penicillium italicum; [13]): 7
Observed antifungal activity O (%) (Penicillium italicum; [14]): 80%
Observed antifungal activity O (%) (Penicillium italicum; [15]): 73%
Observed antifungal activity O (%) (Penicillium italicum; [16]): 63%
Observed antifungal activity O (%) (Penicillium italicum; [17]): 50%
Observed antifungal activity O (%) (Penicillium italicum; [18]): 46%
Observed antifungal activity O (%) (Penicillium italicum; [19]): 43%
Observed antifungal activity O (%) (Penicillium italicum; [20]): 41%
Observed antifungal activity O (%) (Penicillium italicum; day 18, 250 ppm natamycin, 250 ppm fenpropidin or both): 41%
Observed antifungal activity O (%) (Penicillium italicum; [21]): 32%
Observed antifungal activity O (%) (Penicillium italicum; [22]): 36%
Observed antifungal activity O (%) (Penicillium italicum; day 19, 250 ppm natamycin, 250 ppm fenpropidin or both): 36%
Observed antifungal activity O (%) (Penicillium italicum; [23]): 29%
Observed antifungal activity O (%) (Penicillium italicum; [24]): 34%
Observed antifungal activity O (%) (Penicillium italicum; day 20, 250 ppm natamycin, 250 ppm fenpropidin or both): 34%
Observed antifungal activity O (%) (Penicillium italicum; [25]): 20%
Observed antifungal activity O (%) (Penicillium italicum; [26]): 32%
Observed antifungal activity O (%) (Penicillium italicum; day 21, 250 ppm natamycin, 250 ppm fenpropidin or both): 32%
Observed antifungal activity O (%) (Penicillium italicum; [27]): 16%
Observed antifungal activity O (%) (Penicillium italicum; [28]): 29%
Observed antifungal activity O (%) (Penicillium italicum; day 22, 250 ppm natamycin, 250 ppm fenpropidin or both): 29%
Observed antifungal activity O (%) (Penicillium italicum; [29]): 14%
Observed antifungal activity O (%) (Penicillium italicum; day 22, 500 ppm natamycin, 500 ppm fenpropidin or both): 14%
Observed antifungal activity O (%) (Penicillium italicum; [30]): 25%
Observed antifungal activity O (%) (Penicillium italicum; day 23, 250 ppm natamycin, 250 ppm fenpropidin or both): 25%
Observed antifungal activity O (%) (Penicillium italicum; [31]): 14%
Observed antifungal activity O (%) (Penicillium italicum; day 23, 500 ppm natamycin, 500 ppm fenpropidin or both): 14%
Observed antifungal activity O (%) (Penicillium italicum; [32]): 14%
Observed antifungal activity O (%) (Penicillium italicum; [33]): 19%
Observed antifungal activity O (%) (Penicillium italicum; day 25, 250 ppm natamycin, 250 ppm fenpropidin or both): 19%
Observed antifungal activity O (%) (Penicillium italicum; day 25, 500 ppm natamycin, 500 ppm fenpropidin or both): 14%
Observed antifungal activity O (%) (Penicillium italicum; [34]): 17%
Observed antifungal activity O (%) (Penicillium italicum; day 26, 250 ppm natamycin, 250 ppm fenpropidin or both): 17%
Observed antifungal activity O (%) (Penicillium italicum; day 26, 500 ppm natamycin, 500 ppm fenpropidin or both): 14%
Observed antifungal activity O (%) (Penicillium italicum; day 27, 500 ppm natamycin, 500 ppm fenpropidin or both): 14%
Observed antifungal activity O (%) (Penicillium italicum; day 28, 500 ppm natamycin, 500 ppm fenpropidin or both): 14%

CCCN(CC)CC1COC2(CCC(C(C)(C)C)CC2)O1 (stereo not shown) [Spiroxamine, spiroxamine]
Number of moulded oranges/total number of 8 oranges (Penicillium italicum; [1]): 7 and 7/8
Number of moulded oranges/total number of 8 oranges (Penicillium italicum; [2]): 8 and 8/8
Number of moulded oranges/total number of 8 oranges (Penicillium italicum; [3]): 8/8
Number of moulded oranges/total number of 8 oranges (Penicillium italicum; [4]): 8/8
Number of moulded oranges/total number of 8 oranges (Penicillium italicum; [5]): 8/8
Number of moulded oranges/total number of 8 oranges (Penicillium italicum; [6]): 8 and 8/8
Number of moulded oranges/total number of 8 oranges (Penicillium italicum; [7]): 8 and 8/8
Number of moulded oranges/total number of 8 oranges (Penicillium italicum; [8]): 8/8
Number of moulded oranges/total number of 8 oranges (Penicillium italicum; [9]): 8 and 8/8
Number of moulded oranges/total number of 8 oranges (Penicillium italicum; [10]): 8/8
Number of moulded oranges/total number of 8 oranges (Penicillium italicum; [11]): 8 and 8/8
Number of moulded oranges/total number of 8 oranges (Penicillium italicum; [12]): 8/8
moulded oranges of the 8 oranges (Penicillium italicum; after 14 through 16 days and 18 days of incubation, 500 ppm natamycin, 400 ppm spiroxamine): 8
moulded oranges of the 8 oranges (Penicillium italicum; days 13 through 15, 250 ppm natamycin, 200 ppm spiroxamine or both): 8
moulded oranges of the 8 oranges (Penicillium italicum; [13]): 8
Observed antifungal activity O (%) (Penicillium italicum; [14]): 75%
Observed antifungal activity O (%) (Penicillium italicum; [15]): 64%
Observed antifungal activity O (%) (Penicillium italicum; [16]): 48%
Observed antifungal activity O (%) (Penicillium italicum; [17]): 39%
Observed antifungal activity O (%) (Penicillium italicum; [18]): 31%
Observed antifungal activity O (%) (Penicillium italicum; [19]): 20%
Observed antifungal activity O (%) (Penicillium italicum; [20]): 3%
Observed antifungal activity O (%) (Penicillium italicum; [21]): 22%
Observed antifungal activity O (%) (Penicillium italicum; [22]): 0%
Observed antifungal activity O (%) (Penicillium italicum; [23]): 8%
Observed antifungal activity O (%) (Penicillium italicum; [24]): 0%
Observed antifungal activity O (%) (Penicillium italicum; [25]): 0%
Observed antifungal activity O (%) (Penicillium italicum; [26]): 0%
Observed antifungal activity O (%) (Penicillium italicum; [27]): 0%
Observed antifungal activity O (%) (Penicillium italicum; [28]): 0%
Observed antifungal activity O (%) (Penicillium italicum; [29]): 0%
Observed antifungal activity O (%) (Penicillium italicum; [30]): 0%
Observed antifungal activity O (%) (Penicillium italicum; [31]): 0%
Observed antifungal activity O (%) (Penicillium italicum; [32]): 0%
Observed antifungal activity O (%) (Penicillium italicum; [33]): 0%
Observed antifungal activity O (%) (Penicillium italicum; [34]): 0%
